From PMC8037182, “Solvothermal Synthesis of Multiple Dihydropyrimidinones at a Time as Inhibitors of Eg5” (Molecules, 2021)

How the values were obtained:
Caco-2 cell line = experiment: Cytotoxicity MTS assay, Caco-2 cell line; type: cell-based; conditions: for OD490 Mean / OD490 Well 1 / OD490 Well 2 / OD490 Well 3: Caco-2 cell line
How it was run: (§1)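 Absorbance at 490 nm after a 2 h MTS step at 37 °C gave cell viability. Before that, cells plated at 1000/well were treated for 24 h with compounds spanning 0.5–100 µM (final). IC50 values were fitted by non-linear regression of percent viability versus concentration.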

Hela cell line = experiment: Cytotoxicity MTS assay, Hela cell line; type: cell-based; conditions: for OD490 value, Mean / OD490 value, Well 1 / OD490 value, Well 2 / OD490 value, Well 3: Hela cell line, MTS;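 as to OD490 value, Mean: blank control wells received 0.025% DMSO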;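 as to OD490 value, Well 1: blank control wells received 0.025% DMSO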;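 as to OD490 value, Well 2: blank control wells received 0.025% DMSO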;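 as to OD490 value, Well 3: blank control wells received 0.025% DMSO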
How it was run: as §1

## CCOC(=O)c1c(C2NC(=O)NC(C)=C2C(=O)Nc2ccccc2)[nH]c(C(=O)OC)c1C (centres unmarked) [D10]
Caco-2 cell line; 0.5μM, first assay
  OD490 Mean: 0.4742
  OD490 Well 1: 0.4527
  OD490 Well 2: 0.4966
  OD490 Well 3: 0.4734
Caco-2 cell line; 0.5μM, second assay
  OD490 Mean: 0.5530
  OD490 Well 1: 0.531
  OD490 Well 2: 0.6234
  OD490 Well 3: 0.5045
Caco-2 cell line; 0.5μM, third assay
  OD490 Mean: 0.6289
  OD490 Well 1: 0.6132
  OD490 Well 2: 0.6414
  OD490 Well 3: 0.6321
Caco-2 cell line; 1μM, first assay
  OD490 Mean: 0.5016
  OD490 Well 1: 0.5182
  OD490 Well 2: 0.4910
  OD490 Well 3: 0.4957
Caco-2 cell line; 1μM, second assay
  OD490 Mean: 0.6121
  OD490 Well 1: 0.5315
  OD490 Well 2: 0.6788
  OD490 Well 3: 0.626
Caco-2 cell line; 1μM, third assay
  OD490 Mean: 0.6367
  OD490 Well 1: 0.6031
  OD490 Well 2: 0.6621
  OD490 Well 3: 0.6449
Caco-2 cell line; 10μM, first assay
  OD490 Mean: 0.4933
  OD490 Well 1: 0.4499
  OD490 Well 2: 0.5248
  OD490 Well 3: 0.5052
Caco-2 cell line; 10μM, second assay
  OD490 Mean: 0.5658
  OD490 Well 1: 0.6
  OD490 Well 2: 0.624
  OD490 Well 3: 0.4735
Caco-2 cell line; 10μM, third assay
  OD490 Mean: 0.6081
  OD490 Well 1: 0.6012
  OD490 Well 2: 0.6321
  OD490 Well 3: 0.5911
Caco-2 cell line; 25μM, first assay
  OD490 Mean: 0.4730
  OD490 Well 1: 0.3491
  OD490 Well 2: 0.5643
  OD490 Well 3: 0.5057
Caco-2 cell line; 25μM, second assay
  OD490 Mean: 0.5406
  OD490 Well 1: 0.5132
  OD490 Well 2: 0.5889
  OD490 Well 3: 0.5197
Caco-2 cell line; 25μM, third assay
  OD490 Mean: 0.5321
  OD490 Well 1: 0.5365
  OD490 Well 2: 0.4987
  OD490 Well 3: 0.5612
Caco-2 cell line; 50μM, first assay
  OD490 Mean: 0.4403
  OD490 Well 1: 0.3579
  OD490 Well 2: 0.5436
  OD490 Well 3: 0.4193
Caco-2 cell line; 50μM, second assay
  OD490 Mean: 0.4763
  OD490 Well 1: 0.4113
  OD490 Well 2: 0.5208
  OD490 Well 3: 0.4969
Caco-2 cell line; 50μM, third assay
  OD490 Mean: 0.4757
  OD490 Well 1: 0.4698
  OD490 Well 2: 0.4875
  OD490 Well 3: 0.4698
Caco-2 cell line; 100μM, first assay
  OD490 Mean: 0.4342
  OD490 Well 1: 0.3369
  OD490 Well 2: 0.4685
  OD490 Well 3: 0.4971
Caco-2 cell line; 100μM, second assay
  OD490 Mean: 0.4596
  OD490 Well 1: 0.4737
  OD490 Well 2: 0.4587
  OD490 Well 3: 0.4463
Caco-2 cell line; 100μM, third assay
  OD490 Mean: 0.4349
  OD490 Well 1: 0.4356
  OD490 Well 2: 0.4169
  OD490 Well 3: 0.4521
Caco-2 cell line; MTS assay, 24 h exposure
  IC50: 108 µM
Hela cell line; 0.5μM, first assay
  OD490 value, Mean: 2.4433
  OD490 value, Well 1: 2.2781
  OD490 value, Well 2: 2.4004
  OD490 value, Well 3: 2.6514
Hela cell line; 0.5μM, second assay
  OD490 value, Mean: 2.6180
  OD490 value, Well 1: 2.6587
  OD490 value, Well 2: 2.4789
  OD490 value, Well 3: 2.7165
Hela cell line; 0.5μM, third assay
  OD490 value, Mean: 2.7318
  OD490 value, Well 1: 2.6365
  OD490 value, Well 2: 2.6647
  OD490 value, Well 3: 2.8942
Hela cell line; 1μM, first assay
  OD490 value, Mean: 2.5456
  OD490 value, Well 1: 2.4058
  OD490 value, Well 2: 2.5965
  OD490 value, Well 3: 2.6345
Hela cell line; 1μM, second assay
  OD490 value, Mean: 2.6802
  OD490 value, Well 1: 2.6241
  OD490 value, Well 2: 2.8523
  OD490 value, Well 3: 2.5641
Hela cell line; 1μM, third assay
  OD490 value, Mean: 2.6076
  OD490 value, Well 1: 2.6360
  OD490 value, Well 2: 2.5412
  OD490 value, Well 3: 2.6456
Hela cell line; 10μM, first assay
  OD490 value, Mean: 2.4164
  OD490 value, Well 1: 2.2701
  OD490 value, Well 2: 2.4384
  OD490 value, Well 3: 2.5408
Hela cell line; 10μM, second assay
  OD490 value, Mean: 2.3656
  OD490 value, Well 1: 2.3071
  OD490 value, Well 2: 2.3385
  OD490 value, Well 3: 2.4512
Hela cell line; 10μM, third assay
  OD490 value, Mean: 2.4636
  OD490 value, Well 1: 2.3685
  OD490 value, Well 2: 2.4635
  OD490 value, Well 3: 2.5587
Hela cell line; 25μM, first assay
  OD490 value, Mean: 2.2246
  OD490 value, Well 1: 1.9325
  OD490 value, Well 2: 2.3409
  OD490 value, Well 3: 2.4004
Hela cell line; 25μM, second assay
  OD490 value, Mean: 2.1531
  OD490 value, Well 1: 2.0147
  OD490 value, Well 2: 2.2032
  OD490 value, Well 3: 2.2414
Hela cell line; 25μM, third assay
  OD490 value, Mean: 2.1839
  OD490 value, Well 1: 2.1010
  OD490 value, Well 2: 2.1141
  OD490 value, Well 3: 2.3365
Hela cell line; 50μM, first assay
  OD490 value, Mean: 1.8479
  OD490 value, Well 1: 1.6416
  OD490 value, Well 2: 1.7737
  OD490 value, Well 3: 2.1285
Hela cell line; 50μM, second assay
  OD490 value, Mean: 1.7649
  OD490 value, Well 1: 1.7425
  OD490 value, Well 2: 1.7321
  OD490 value, Well 3: 1.8201
Hela cell line; 50μM, third assay
  OD490 value, Mean: 1.8099
  OD490 value, Well 1: 1.7845
  OD490 value, Well 2: 1.8032
  OD490 value, Well 3: 1.8420
Hela cell line; 100μM, first assay
  OD490 value, Mean: 1.6845
  OD490 value, Well 1: 1.6759
  OD490 value, Well 2: 1.7430
  OD490 value, Well 3: 1.6346
Hela cell line; 100μM, second assay
  OD490 value, Mean: 1.6082
  OD490 value, Well 1: 1.6324
  OD490 value, Well 2: 1.5024
  OD490 value, Well 3: 1.6898
Hela cell line; 100μM, third assay
  OD490 value, Mean: 1.7036
  OD490 value, Well 1: 1.6578
  OD490 value, Well 2: 1.6988
  OD490 value, Well 3: 1.7542
Hela cell line; MTS assay, 24 h exposure
  IC50: 108 µM
